Calls of active or inactive are those of the source. The calls are words filed in the database; no cut-off is given here.
Columns and labels:
[1] = tested on: Mus musculus; assay: Dopamine antagonist activity expressed as inhibition of apomorphine-induced climbing in mice, subcutaneous administration; assay type: functional
[2] = tested on: Rattus norvegicus; assay: Prokinetic activity expressed as stimulation of intragastric pressure in rat at the lowest active dose in mg/kg on subcutaneous administration.; assay type: functional
[3] = Selectivity at Dopamine receptors compared to 5-HT receptors.; assay type: functional
[4] = tested on: Rattus norvegicus; assay: Antagonist activity against 5-HT3 receptor was assessed from ability to inhibit the 5-HT -induced bradycardia when dose given intravenously; inactive up to 1 mg/kg; assay type: functional, organism-based; parameters: dose 1 mg/kg
[5] = molecular target: D(2) dopamine receptor (Rattus norvegicus, UniProt P61169); assay: Compound was tested against Dopamine receptor D2 by displacement of [125I]iodosulpiride radioligand from rat D2 clones
[6] = Mus musculus, sc, read-out: ED50

D(2) dopamine receptor, sequence (P61169 whole entry): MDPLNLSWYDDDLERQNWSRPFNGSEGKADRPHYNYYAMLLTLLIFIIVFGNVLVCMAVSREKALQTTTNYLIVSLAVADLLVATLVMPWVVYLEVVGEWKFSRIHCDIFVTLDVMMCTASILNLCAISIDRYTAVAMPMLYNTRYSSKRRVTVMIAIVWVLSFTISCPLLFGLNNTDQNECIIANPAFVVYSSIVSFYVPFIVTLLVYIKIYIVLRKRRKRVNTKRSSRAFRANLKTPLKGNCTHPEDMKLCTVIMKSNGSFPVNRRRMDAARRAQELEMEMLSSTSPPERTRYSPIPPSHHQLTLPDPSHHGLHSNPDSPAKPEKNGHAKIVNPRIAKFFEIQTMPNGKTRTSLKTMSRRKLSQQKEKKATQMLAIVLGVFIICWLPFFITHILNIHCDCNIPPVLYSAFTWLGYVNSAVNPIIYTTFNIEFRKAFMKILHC

Compound | Activity [2] | ED50 [1] | Ratio [3] | other results
COc1cc(N)c(Cl)cc1C(=O)NC1CCN2CC(C)CCC2C1 (stereo in doubt; 17) | >5 mg/kg | – | – | ED50 [1, 6]: > 10 mg/kg
COc1cc(N)c(Cl)cc1C(=O)NC1CCN2CCCC2(C)C1 (centres undefined) | >1 mg/kg | – | – | ED50 [1, 6]: > 30 mg/kg
COc1cc(N)c(Cl)cc1C(=O)NC1CC2CCCCN2C1 (single isomer, unassigned; form 2) | – | 0.1 mg/kg | – | –
CCN(CC)CCNC(=O)c1cc(Cl)c(N)cc1OC [METOCLOPRAMIDE] | 1 mg/kg | – | 0.8 | ED50 [1, 6]: 0.8 mg/kg
COc1cc(N)c(Cl)cc1C(=O)NC1CCN2CCCCC12 (single isomer, unassigned) [listing 1 of 2 here] | 0.5 mg/kg | 0.2 mg/kg | – | –
COc1cc(N)c(Cl)cc1C(=O)NCC1CCC2CCCCN2C1 (centres undefined) | 5 mg/kg | – | – | –
COc1cc(N)c(Cl)cc1C(=O)NCC1CC2CCCCN2C1 (centres undefined) | >25 mg/kg | – | – | Activity [4]: inactive
COc1cc(N)c(Cl)cc1C(=O)NC1CCN2C(C)CCCC2C1 (stereo in doubt; 2) [BRL-20627] | – | 25 mg/kg | – | –
COc1cc(N)c(Cl)cc1C(=O)NC[C@H]1CCC2CCCCN2C1 (some centres undefined) | 0.2 mg/kg | – | > 125 | IC50 [5]: 3.9 µM; ED50 [1, 6]: > 25 mg/kg; Activity [4]: inactive
COc1cc(N)c(Cl)cc1C(=O)NC1CCN2CC(C)CCC2C1 (stereo in doubt; 18) | 5 mg/kg | – | – | –
COc1cc(N)c(Cl)cc1C(=O)NC1CCN2CCCC2C1 (stereo in doubt; 8 (Eq)) [listing 1 of 2 here] | – | – | 1.2 | –
COc1cc(N)c(Cl)cc1C(=O)NC1CCN2CCCCC12 (stereo in doubt) [listing 1 of 2 here] | – | – | 1.8 | –
COc1cc(N)c(Cl)cc1C(=O)NC1CCN2C(C)CCC2C1 (centres undefined) | 0.5 mg/kg | – | 30 | ED50 [1, 6]: 15 mg/kg
COc1cc(N)c(Cl)cc1C(=O)NC1CC2CCCCN2C1 (single isomer, unassigned; form 1) | >10 mg/kg | >10 mg/kg | – | –
COc1cc(N)c(Cl)cc1C(=O)NC1CCN2CCCC12 (centres undefined) | 0.5 mg/kg | – | 15 | ED50 [1, 6]: 7.5 mg/kg
COc1cc(N)c(Cl)cc1C(=O)NC1CCN2CCCC2C1 (stereo in doubt; 9 (Ax)) [listing 1 of 2 here] | – | – | 60 | –
COc1cc(N)c(Cl)cc1C(=O)NC1CC(C)N2CCCC2C1 (stereo in doubt; 27) [listing 1 of 2 here] | – | 10 mg/kg | – | –
COc1cc(N)c(Cl)cc1C(=O)NCC1CCC2CCCCN21 (stereo in doubt) | >1 mg/kg | 20 mg/kg | – | –
COc1cc(N)c(Cl)cc1C(=O)NC1CCN2CCCC2C1 (stereo in doubt; 9 (Ax)) [listing 2 of 2 here] | 0.2 mg/kg | 12 mg/kg | – | –
COc1cc(N)c(Cl)cc1C(=O)NC1CCN2C(C)CCCC2C1 (stereo in doubt) | – | – | 50 | –
COc1cc(N)c(Cl)cc1C(=O)NC1CCN2C(C)CCCC2C1 (stereo in doubt; 2) | – | – | 50 | –
COc1cc(N)c(Cl)cc1C(=O)NC1CCN2C(CCCC2c2ccccc2)C1 (stereo in doubt; 21) | – | – | – | ED50 [1, 6]: 5 mg/kg
COc1cc(N)c(Cl)cc1C(=O)NC1CCN2CCCCC12 (single isomer, unassigned) [listing 2 of 2 here] | – | – | 0.4 | –
COc1cc(N)c(Cl)cc1C(=O)NCC1CCC2CCCCN21 (single isomer, unassigned) [listing 1 of 2 here] | 0.2 mg/kg | – | – | ED50 [1, 6]: 15 mg/kg

Compound | Activity [2] | ED50 [1] | Ratio [3] | other results
COc1cc(N)c(Cl)cc1C(=O)NC1CCN2C(CCCC2c2ccccc2)C1 (stereo in doubt; 22) | >5 mg/kg | 5 mg/kg | – | –
COc1cc(N)c(Cl)cc1C(=O)NC1CC(C)N2CCCCC2C1 (stereo in doubt; 25) | >1 mg/kg | – | – | ED50 [1, 6]: > 30 mg/kg
COc1cc(N)c(Cl)cc1C(=O)NC1CCN2CCCC2C1 (stereo in doubt; 8 (Eq)) [listing 2 of 2 here] | 5 mg/kg | – | – | ED50 [1, 6]: 6 mg/kg
COc1cc(N)c(Cl)cc1C(=O)NCC1CCCN2CCCCC12 (single isomer, unassigned) | >25 mg/kg | – | – | –
COc1cc(N)c(Cl)cc1C(=O)NC1CCN2CCCCC12 (stereo in doubt) [listing 2 of 2 here] | 1 mg/kg | 1.8 mg/kg | – | –
COc1cc(N)c(Cl)cc1C(=O)NC1CC(C)N2CCCC2C1 (stereo in doubt; 29) [listing 1 of 2 here] | – | – | 34 | –
COc1cc(N)c(Cl)cc1C(=O)NC1CCN2C(C)CCCC2C1 (stereo in doubt; 19) [BRL-20627] | >5 mg/kg | – | – | –
COc1cc(N)c(Cl)cc1C(=O)NC1CC(C)N2CCCCC2C1 (stereo in doubt; 23) | >5 mg/kg | – | – | –
COc1cc(N)c(Cl)cc1C(=O)NC1CCC2CCCCN2CC1 (centres undefined) | >25 mg/kg | – | – | ED50 [1, 6]: > 50 mg/kg
COc1cc(N)c(Cl)cc1C(=O)NC1CCCN2CCCCC2C1 (single isomer, unassigned; form 1) [listing 1 of 2 here] | – | – | > 50 | –
COc1cc(N)c(Cl)cc1C(=O)NC1CCCN2CCCC12 (stereo in doubt; 11 (Ax)) [listing 1 of 2 here] | 0.5 mg/kg | 0.1 mg/kg | – | –
COc1cc(N)c(Cl)cc1C(=O)NC1CCCN2CCCC12 (stereo in doubt; 10 (Eq)) | >5 mg/kg | 3.5 mg/kg | – | –
COc1cc(N)c(Cl)cc1C(=O)NC1CC(C)N2CCCC2C1 (stereo in doubt; 29) [listing 2 of 2 here] | – | 34 mg/kg | – | –
COc1cc(N)c(Cl)cc1C(=O)NC1CC(C)N2CCCC2C1 (stereo in doubt; 28) [listing 1 of 2 here] | 1 mg/kg | 50 mg/kg | – | –
COc1cc(N)c(Cl)cc1C(=O)NC1CCCN2CCCCC2C1 (single isomer, unassigned; form 1) [listing 2 of 2 here] | 1 mg/kg | – | – | ED50 [1, 6]: > 50 mg/kg
COc1cc(N)c(Cl)cc1C(=O)NC1CC(C)N2CCCC2C1 (stereo in doubt; 30) | >1 mg/kg | >50 mg/kg | – | –
COc1cc(N)c(Cl)cc1C(=O)NC1CCCN2CCCCC2C1 (single isomer, unassigned; form 2) [listing 1 of 2 here] | – | – | 38 | –
COc1cc(N)c(Cl)cc1C(=O)NCC1CCC2CCCCN21 (single isomer, unassigned) [listing 2 of 2 here] | – | – | 75 | –
COc1cc(N)c(Cl)cc1C(=O)NC1CC(C)N2CCCC2C1 (stereo in doubt; 27) [listing 2 of 2 here] | – | – | 10 | –
COc1cc(N)c(Cl)cc1C(=O)NC1CC(C)N2CCCC2C1 (stereo in doubt; 28) [listing 2 of 2 here] | – | – | 50 | –
COc1cc(N)c(Cl)cc1C(=O)NC1CCCN2CCCC12 (stereo in doubt; 11 (Ax)) [listing 2 of 2 here] | – | – | 0.2 | –
CCCC1CCCC2CC(NC(=O)c3cc(Cl)c(N)cc3OC)CCN12 (centres undefined) | 1 mg/kg | – | > 10 | ED50 [1, 6]: > 10 mg/kg
COc1cc(N)c(Cl)cc1C(=O)NC1CCN2C(C)CCCC2C1 (stereo in doubt) [BRL-20627] | 0.5 mg/kg | – | – | ED50 [1, 6]: 25 mg/kg
COc1cc(N)c(Cl)cc1C(=O)NC1CCCN2CCCCC2C1 (single isomer, unassigned; form 2) [listing 2 of 2 here] | – | 38 mg/kg | – | –

Source: ChEMBL document CHEMBL1126459, “Substituted Benzamides with Conformationally Restricted Side Chains. 3. Azabicyclo[x.y.0] derivatives as gastric prokinetic agents” (Bioorg Med Chem Lett, 1992)
